Data on 37 compounds can be found in US20030191323A1, “Hypoglycemic agent” (Ajinomoto Co., Inc., priority 2000, published 2003).

One series relates to Rat skeletal muscle cell strain L6 cells. Nature of the series: Effect of accelerating the glucose uptake in cultured skeletal muscle cells ([3H]-2-deoxyglucose uptake). The series is classed as cell-based. As to conditions: 10 min, 10 μM compound, cultured overnight, 2DG uptake in L6 myotubes, 37° C. 10 minutes, compared with the control group. How it is done: Effect of accelerating the glucose uptake in cultured skeletal muscle cells: Method: Rat skeletal muscle cell strain “L6 cells” in a confluent state was cultured in DME medium containing 2% of fetal calf serum for one week to differentiate into myotubes. The medium was replaced with the DME medium containing a compound synthesized in each of the above Reference Examples. After culturing overnight followed by the thorough washing with HEPES buffer solution, an HEPES buffer solution containing 37 kBq/ml of 10 μM [3H]-2-deoxyglucose (2DG) was added thereto. After the culture at 37° C. for 10 minutes, the radioactivity of 2DG transmigrated into the cells was determined. The effect (%) of each compound on 2DG uptake was determined as compared with that in the control group.
On to `CCCCCC(=O)NS(=O)(=O)c1ccccc1NC(=O)c1cccc(OCc2ccc(C(F)(F)F)cc2)c1` [compound 41, N-[2-[3-(4-Trifluoromethylbenzyloxy)benzamido]benzenesulfonyl]hexanamide], for which the activity at 10 µM came to 230%.
The same measure, in the same setting: to `CC(C)(C)C(=O)NS(=O)(=O)c1ccccc1NC(=O)c1ccc(C#Cc2ccccc2)cc1` [compound 51, N-[2-(4-Phenylethynylbenzamido)benzenesulfonyl]pivalamide] belongs 225%; to `CCCCCC(=O)NS(=O)(=O)c1ccccc1NC(=O)c1cccc(OCc2ccc([N+](=O)[O-])cc2)c1` [compound 26, N-[2-[3-(4-Nitrobenzyloxy)benzamido]benzenesulfonyl]hexanamide], 134%.
On the same count and under the same terms, to `CC/C=C/CC(=O)NS(=O)(=O)c1ccccc1NC(=O)c1ccc(C#Cc2ccccc2)cc1` [compound 54, Trans-N-[2-(4-phenylethynylbenzamido)benzenesulfonyl]-3-hexenamide] belongs 118%; to `CCCCCC(=O)NS(=O)(=O)c1ccccc1NC(=O)c1cccc(OCC2CCCCC2)c1` [compound 34, N-[2-(3-cyclohexylmethoxybenzamido)benzenesulfonyl]hexanamide], 145%.

Tested on in the next series: not given
Test: not given
Conditions: not given
With `O=C(Nc1ccccc1S(=O)(=O)NC(=O)c1ccc(C(F)(F)F)cc1)c1cccc(OCc2ccccc2)c1` [compound 5, N-[2-(3-Benzyloxybenzamido)benzenesulfonyl]-4-trifluoromethylbenzamide], the melting point (usually the temperature of the solid-liquid transition) lay in the range of 220 to 221 °C.
The compound `CCCCCCCCCC(=O)NS(=O)(=O)c1ccccc1NC(=O)c1cccc(OCc2ccc(C(C)(C)C)cc2)c1` [compound 38, N-[2-[3-(4-t-Butylbenzyloxy)benzamido]benzenesulfonyl]decanamide] yielded a melting point of 132 to 133 °C.
In the case of `O=C(NS(=O)(=O)c1ccccc1NC(=O)c1cccc(OCc2ccccc2)c1)Oc1ccccc1`, the melting point lay within 163 to 164 °C.
In turn, `CCCCCC(=O)NS(=O)(=O)c1ccccc1NC(=O)c1cccc(OCc2ccc(C(F)(F)F)cc2)c1` [compound 41, N-[2-[3-(4-Trifluoromethylbenzyloxy)benzamido]benzenesulfonyl]hexanamide] displayed a melting point of 142 to 143 °C.
In turn, `O=C(Nc1ccccc1S(=O)(=O)NC(=O)c1cccc(OCc2ccccc2)c1)c1cccc(OCc2ccccc2)c1` [compound 2, N-[2-(3-Benzyloxybenzamido)benzenesulfonyl]-3-benzyloxybenzamide] had a melting point of 172 to 173 °C.
Regarding `CC(C)(C)c1ccc(COc2cccc(C(=O)Nc3ccccc3S(=O)(=O)NC(=O)/C=C/c3ccccc3)c2)cc1` [compound 15, N-[2-[3-(4-t-butylbenzyloxy)benzamido]benzenesulfonyl]cinnamamide], the melting point lay within 110 to 111 °C.
Regarding `C/C=C/C=C/C(=O)NS(=O)(=O)c1ccccc1NC(=O)c1ccc(C#Cc2ccccc2)cc1` [compound 53, Trans-N-[2-(4-phenylethynylbenzamido)benzenesulfonyl]-2,4-hexadienamide], the melting point lay within 208 to 209 °C.
As for `CCCCCCCOc1cccc(C(=O)Nc2ccccc2S(=O)(=O)NC(C)=O)c1` [compound 44, N-[2-(3-Heptyloxybenzamido)benzenesulfonyl]acetamide], the melting point was in the range of 194 to 195 °C.
Consider `CC(=O)NS(=O)(=O)c1ccccc1NC(=O)c1cccc(OCc2ccccc2)c1` [compound 4, N-[2-(3-Benzyloxybenzamido)benzenesulfonyl]acetamide], for which the melting point was 195 to 196 °C.
The compound `CCCCCC(=O)NS(=O)(=O)c1ccccc1NC(=O)c1cccc(OCc2ccc(C(C)(C)C)cc2)c1` [compound 37, N-[2-[3-(4-t-Butylbenzyloxy)benzamido]benzenesulfonyl]hexanamide] yielded a melting point of 163 to 164 °C.
Regarding `COc1ccc(C(=O)NS(=O)(=O)c2ccccc2NC(=O)c2cccc(OCc3ccccc3)c2)cc1` [compound 7, N-[2-(3-benzyloxybenzamido)benzenesulfonyl]-4-methoxybenzamide], the melting point was 189 to 190 °C.
Turning to `CCCCCCCCCC(=O)NS(=O)(=O)c1ccccc1NC(=O)c1ccc(C#Cc2ccccc2)cc1` [compound 50, N-[2-(4-Phenylethynylbenzamido)benzenesulfonyl]decanamide], the melting point was in the range of 155 to 156 °C.
In turn, `CC(C)=CC(=O)NS(=O)(=O)c1ccccc1NC(=O)c1ccc(C#Cc2ccccc2)cc1` [compound 52, 3-Methyl-N-[2-(4-phenylethynylbenzamido)benzenesulfonyl]-2-butenamide] had a melting point of 187 to 188 °C.
Take `CC(C)(C)C(=O)NS(=O)(=O)c1ccccc1NC(=O)c1ccc(C#Cc2ccccc2)cc1` [compound 51, N-[2-(4-Phenylethynylbenzamido)benzenesulfonyl]pivalamide]: the melting point fell in the range of 236 to 237 °C.
Turning to `CCCCNC(=O)NS(=O)(=O)c1ccccc1NC(=O)c1cccc(OCc2ccccc2)c1`, the melting point was 177 to 178 °C.
In turn, `CCCCCCCCNC(=O)NS(=O)(=O)c1ccccc1NC(=O)c1cccc(OCc2ccccc2)c1` registered a melting point of 124 to 125 °C.
On the same count and under the same terms, to `CCCCCC(=O)NS(=O)(=O)c1ccccc1NC(=O)c1cccc(OCc2ccc([N+](=O)[O-])cc2)c1` [compound 26, N-[2-[3-(4-Nitrobenzyloxy)benzamido]benzenesulfonyl]hexanamide] belongs 138 to 141 °C.
Turning to `CCCCCCCOc1cccc(C(=O)Nc2ccccc2S(=O)(=O)NC(=O)CCCCC)c1` [compound 45, N-[2-(3-Heptyloxybenzamido)benzenesulfonyl]hexanamide], the melting point lay within 200 to 201 °C.
Still for that read-out and setting: to `CC(=O)NS(=O)(=O)c1ccccc1NC(=O)c1cccc(OCc2ccc(C(C)(C)C)cc2)c1` [compound 36, N-[2-[3-(4-t-Butylbenzyloxy)benzamido]benzenesulfonyl]acetamide] belongs 190 to 191 °C; to `CCCCCCCCCC(=O)NS(=O)(=O)c1ccccc1NC(=O)c1cccc(OCc2ccccc2)c1` [compound 10, N-[2-(3-Benzyloxybenzamido)benzenesulfonyl]-decanamide], 85 to 86 °C; to `CCCCCC(=O)NS(=O)(=O)c1ccccc1NC(=O)c1cccc(OCC2CCCCC2)c1` [compound 34, N-[2-(3-cyclohexylmethoxybenzamido)benzenesulfonyl]hexanamide], 112 to 113 °C.
In turn, `CC(=O)NS(=O)(=O)c1ccccc1NC(=O)c1ccc(C#Cc2ccccc2)cc1` [compound 48, N-[2-(4-Phenylethynylbenzamido)benzenesulfonyl]acetamide] gave a melting point of 214 to 215 °C.
Still for that read-out and setting: to `CC(=O)NS(=O)(=O)c1ccccc1NC(=O)c1cccc(OCC2CCCCC2)c1` [compound 33, N-[2-(3-Cyclohexylmethoxybenzamido)benzenesulfonyl]acetamide] belongs 164 to 167 °C; to `COc1ccc(COc2cccc(C(=O)Nc3ccccc3S(=O)(=O)NC(C)=O)c2)cc1` [compound 29, N-[2-[3-(4-Methoxybenzyloxy)benzamido]benzenesulfonyl]acetamide], 114 to 117 °C; to `O=C(Nc1ccccc1S(=O)(=O)NC(=O)c1ccccc1)c1cccc(OCc2ccccc2)c1` [compound 3, N-[2-(3-Benzyloxybenzamido)benzenesulfonyl]-benzamide], 201 to 202 °C.
For `CCCCCCCCCC(=O)NS(=O)(=O)c1ccccc1NC(=O)c1ccc([N+](=O)[O-])c(OCc2ccccc2)c1` [compound 19, N-[2-(3-benzyloxy-4-nitrobenzamido)benzenesulfonyl]decanamide], the melting point lay within 129 to 130 °C.
The compound `O=C(Nc1ccccc1S(=O)(=O)NC(=O)c1ccc([N+](=O)[O-])cc1)c1cccc(OCc2ccccc2)c1` [compound 6, N-[2-(3-benzyloxybenzamido)benzenesulfonyl]-4-nitrobenzamide] yielded a melting point of 233 to 234 °C.
Still for that read-out and setting: to `CCCCCCCCCC(=O)NS(=O)(=O)c1ccccc1NC(=O)c1cccc(OCc2ccc(OC)cc2)c1` [compound 31, N-[2-[3-(4-Methoxybenzyloxy)benzamido]benzenesulfonyl]decanamide] belongs 148 to 149 °C; to `CCCCCCCCCC(=O)NS(=O)(=O)c1ccccc1NC(=O)c1cccc(OCc2ccc([N+](=O)[O-])cc2)c1` [compound 27, N-[2-[3-(4-nitrobenzyloxy)benzamido]benzenesulfonyl]decanamide], 145 to 148 °C.
The compound `CCCCCC(=O)NS(=O)(=O)c1ccccc1NC(=O)c1cccc(OCc2ccccc2)c1` [compound 9, N-[2-(3-Benzyloxybenzamido)benzenesulfonyl]-n-hexanamide] returned a melting point of 133 to 134 °C.
On to `CC(=O)NS(=O)(=O)c1ccccc1NC(=O)c1cccc(OCc2ccc([N+](=O)[O-])cc2)c1` [compound 25, N-[2-[3-(4-Nitrobenzyloxy)benzamido]benzenesulfonyl]acetamide], for which the melting point was in the range of 189 to 192 °C.
The compound `CCCCCCCCCC(=O)NS(=O)(=O)c1ccccc1NC(=O)c1cccc(OCC2CCCCC2)c1` [compound 35, N-[2-(3-Cyclohexylmethoxybenzamido)benzenesulfonyl]decanamide] yielded a melting point of 124 to 127 °C.
The same measure, in the same setting: to `CCCCCCCCCC(=O)NS(=O)(=O)c1ccccc1NC(=O)c1cccc(OCc2ccc(Cl)cc2)c1` [compound 23, N-[2-[3-(4-Chlorobenzyloxy)benzamido]benzenesulfonyl]decanamide] belongs 159 to 161 °C; to `CCCCCC(=O)NS(=O)(=O)c1ccccc1NC(=O)c1cccc(OCc2ccc(Cl)cc2)c1` [compound 22, N-[2-[3-(4-Chlorobenzyloxy)benzamido]benzenesulfonyl]hexanamide], 148 to 149 °C.
Compound `CCCCCCCCCC(=O)NS(=O)(=O)c1ccccc1NC(=O)c1cccc(OCc2ccc(C(F)(F)F)cc2)c1` [compound 42, N-[2-[3-(4-Trifluoromethylbenzyloxy)benzamido]benzenesulfonyl]decanamide] yielded a melting point of 164 °C.
For the compound `CC(C)(C)C(=O)NS(=O)(=O)c1ccccc1NC(=O)c1cccc(OCc2ccc(C(C)(C)C)cc2)c1` [compound 14, N-[2-[3-(4-t-butylbenzyloxy)benzamido]benzenesulfonyl]pivalamide], the melting point was in the range of 193 to 194 °C.
